Source: patent publication US20230399289A1, “ITACONIC ACID DERIVATIVES” (Sitryx Therapeutics Limited, priority 2020, published 2023)
Structures can show the parent of a compound that is named as a salt.

Legend:
hepatocytes [1] = test: Hepatocyte stability assay, mouse; type: in vitro ADME; conditions: 10 μM compound, 0.5×10^6 cells/mL, 60 min
Description: (§1) Defrosted cryo-preserved hepatocytes (viability>70%) may be used to determine the metabolic stability of a compound via calculation of intrinsic clearance (Clint; a measure of the removal of a compound from the liver in the absence of blood flow and cell binding). Clearance data are particularly important for in vitro work as they can be used in combination with in vivo data to predict the half-life and oral bioavailability of a drug.
(§2) The metabolic stability in hepatocytes assay involves a time-dependent reaction using both positive and negative controls. The cells were pre-incubated at 37° C. and spiked with test compound (and positive control); samples were taken at pre-determined time intervals and analysed to monitor the change in concentration of the initial drug compound over 60 minutes. A buffer incubation reaction (with no hepatocytes present) acted as a negative control and two cocktail solutions, containing compounds with known high and low clearance values (verapamil/7-hydroxycoumarin and propranolol/diltiazem), acted as positive controls. • 1. The assay was run with a cell concentration of 0.5×10^6 cells/mL in Leibovitz buffer. • 2. All compounds and controls were run in duplicate. • 3. Compound concentration was 10 μM. • 4. All compounds and controls were incubated with both cells and buffer to show turnover was due to hepatic metabolism. • 5. All wells on the incubation plate had 326.7 μL of either cells or buffer added. • 6. Prior to assay, cell and buffer-only incubation plates were preincubated for 10 mins at 37° C. • 7. The assay was initiated by adding compounds, 3.3 μL of 1 mM in 10% DMSO-90% Buffer; final DMSO concentration is 0.1%. • 8. Samples were taken at regular timepoints (0, 5, 10, 20, 40, 60 min) until 60 mins. • 9. Sample volume was 40 μL and was added to 160 μL of crash solvent (acetonitrile with internal standard) and stored on ice. • 10. At the end of the assay, the crash plates were centrifuged at 3500 rpm for 20 mins at 4° C. • 11. 80 μL of clear supernatant was removed and mixed with 80 μL of deionised water before being analysed by LC-MS/MS.
(§3) Raw LC-MS/MS data was exported to, and analysed in, Microsoft Excel for determination of intrinsic clearance. The percentage remaining of a compound was monitored using the peak area of the initial concentration as 100%. Intrinsic clearance and half-life values were calculated using a graph of the natural log of percentage remaining versus the time of reaction in minutes. Half-life (min) and intrinsic clearance (Clint in μL min^−1 10^−6 cells) values were calculated using the gradient of the graph (the elimination rate constant, k) and Equations 1 and 2.

hepatocytes [2] = test: Hepatocyte stability assay, human; type: in vitro ADME; conditions: 10 μM compound, 0.5×10^6 cells/mL, 60 min
Description: as §1, §2, §3

[3] = system: IL-1β cytokine output from THP-1 cells; test: THP-1 AlphaLISA IL-1β cytokine assay; type: cell-based; conditions: Homo sapiens, THP-1, differentiated THP-1 cells, LPS 24 hr then Nigericin 1 hour
Method: (§4) Measuring Inhibitory Effects on IL-1β and IL-6 Cytokine Output from THP-1s
(§5) The cytokine inhibition profiles of compounds of formula (I) were determined in a differentiated THP-1 cell assay. All assays were performed in RPMI-1640 growth medium (Gibco), supplemented with 10% fetal bovine serum (FBS; Gibco), 1% penicillin-streptomycin and 1% sodium pyruvate unless specified otherwise. The IL-1β and IL-6 cytokine inhibition assays were each run in a background of differentiated THP-1 cells as described below. All reagents described were from Sigma-Aldrich unless specified otherwise. Compounds were prepared as 10 mM DMSO stocks.
(§6) THP-1 cells were expanded as a suspension up to 80% confluence in appropriate growth medium. Cells were harvested, suspended, and treated with an appropriate concentration of phorbol 12-myristate 13-acetate (PMA) over a 72 hr period (37° C./5% CO2).
(§7) Following 72 hrs of THP-1 cell incubation, cellular medium was removed and replaced with fresh growth media containing 1% of FBS. Working concentrations of compounds were prepared separately in 10% FBS treated growth medium and pre-incubated with the cells for 30 minutes (37° C./5% CO2). Following the 30 minute compound pre-incubation, THP-1s were treated with an appropriate concentration of LPS and the THP-1s were subsequently incubated for a 24 hr period (37° C./5% CO2). An appropriate final concentration of Nigericin was then dispensed into the THP-1 plates and incubated for 1 hour (37° C./5% CO2) before THP-1 supernatants were harvested and collected in separate polypropylene 96-well holding plates.
(§8) Reagents from each of the […] and IL-6 commercial kits (Perkin Elmer) were prepared and run according to the manufacturer's instructions. Subsequently, fluorescence signal detection in a microplate reader was measured (EnVision® Multilabel Reader, Perkin Elmer).
(§9) Percentage inhibition was calculated per cytokine by normalising the sample data to the high and low controls used within each plate (+/−LPS respectively). Percentage inhibition was then plotted against compound concentration and the 50% inhibitory concentration (IC50) was determined from the resultant concentration-response curve.

[4] = Hepatocyte stability assay, mouse; type: in vitro ADME; conditions: cryopreserved hepatocytes, 10 μM compound, 0.5×10^6 cells/mL, 60 min, read-out: T½
Description: as §1, §2, §3

[5] = Hepatocyte stability assay, human; type: in vitro ADME; conditions: cryopreserved hepatocytes, 10 μM compound, 0.5×10^6 cells/mL, 60 min, read-out: T½
Description: as §1, §2, §3

[6] = system: IL-6 cytokine output from THP-1 cells; test: THP-1 AlphaLISA IL-6 cytokine assay; type: cell-based; conditions: Homo sapiens, THP-1, differentiated THP-1 cells, LPS 24 hr then Nigericin 1 hour
Method: as §4, §5, §6, §7, §8, §9

[7] = system: NRF2 (nuclear factor erythroid 2-related factor 2); test: NRF2 +/−GSH activation assay (DiscoverX PathHunter NRF2 translocation kit, U2OS cells); type: cell-based; conditions: Homo sapiens; for Emax: U2OS, normalised to dimethyl fumarate high control; for EC50: U2OS PathHunter cells, 6 hours
[8] = +GSH, 30 minute compound-GSH pre-incubation

Row | SMILES | CIint (hepatocytes [1]) | CIint (hepatocytes [2]) | IC50 [3] | IC50 [6] | further results
1 | C=C(CC(=O)OCCCCCCCC)C(=O)O [4-octyl itaconate, reference compound] | 351 μL min^−1 10^−6 cells | 401 μL min^−1 10^−6 cells |  |  | T½ (hepatocytes [1]): 4 min; T½ (hepatocytes [2]): 4 min
2 | C=C(CC(=O)OC1(c2cccc(Cl)c2Cl)CCC1)C(=O)OCC(=O)O [Example 7, 2-((4-(1-(2,3-dichlorophenyl)cyclobutoxy)-2-methylene-4-oxobutanoyl)oxy)acetic acid] | 107 μL min^−1 10^−6 cells | 10 μL min^−1 10^−6 cells | 17.4 µM |  | half-life at 10 μM [4]: 18 min; half-life at 10 μM [5]: 151 min
3 | C=C(CC(=O)OC1(c2cc(F)c(F)c(F)c2)CCC1)C(=O)OCC(=O)O [Example 14, 2-((2-methylene-4-oxo-4-(1-(3,4,5-trifluorophenyl)cyclobutoxy)butanoyl)oxy)acetic acid] |  |  | 19.9 µM |  | 
4 | C=C(CC(=O)OC1(c2cc(Cl)cc(C(F)(F)F)c2)CCC1)C(=O)OCC(=O)O [Example 15, 2-((4-(1-(3-chloro-5-(trifluoromethyl)phenyl)cyclobutoxy)-2-methylene-4-oxobutanoyl)oxy)acetic acid] |  |  | 8.6 µM |  | 
5 | C=C(CC(=O)OC1(c2ccc(C(F)(F)F)c(Cl)c2)CCC1)C(=O)OCC(=O)O [Example 16, 2-((4-(1-(3-chloro-4-(trifluoromethyl)phenyl)cyclobutoxy)-2-methylene-4-oxobutanoyl)oxy)acetic acid] | 61 μL min^−1 10^−6 cells | 7 μL min^−1 10^−6 cells | 4.9 µM |  | half-life at 10 μM [4]: 25 min; half-life at 10 μM [5]: 209 min
6 | C=C(CC(=O)OC1(c2cc(Cl)c(F)c(Cl)c2)CCC1)C(=O)OCC(=O)O [Example 17, 2-((4-(1-(3,5-dichloro-4-fluorophenyl)cyclobutoxy)-2-methylene-4-oxobutanoyl)oxy)acetic acid] | 73 μL min^−1 10^−6 cells | 8 μL min^−1 10^−6 cells | 4.9 µM |  | half-life at 10 μM [4]: 21 min; half-life at 10 μM [5]: 188 min
7 | C=C(CC(=O)OC1(c2cc(Cl)c(OC)c(Cl)c2)CCC1)C(=O)OCC(=O)O [Example 18, 2-((4-(1-(3,5-dichloro-4-methoxyphenyl)cyclobutoxy)-2-methylene-4-oxobutanoyl)oxy)acetic acid] | 58 μL min^−1 10^−6 cells | 13 μL min^−1 10^−6 cells | 9.9 µM |  | half-life at 10 μM [4]: 26 min; half-life at 10 μM [5]: 109 min
8 | C=C(CC(=O)OC1(c2cc(F)c(C(F)(F)F)c(F)c2)CCC1)C(=O)OCC(=O)O [Example 19, 2-((4-(1-(3,5-difluoro-4-(trifluoromethyl)phenyl)cyclobutoxy)-2-methylene-4-oxobutanoyl)oxy)acetic acid] | 66 μL min^−1 10^−6 cells | 8 μL min^−1 10^−6 cells | 4.4 µM |  | half-life at 10 μM [4]: 23 min; half-life at 10 μM [5]: 187 min
9 | C=C(CC(=O)OC1(c2ccc(C(F)(F)F)cc2)CCC1)C(=O)O[C@@H](CC(=O)O)C(F)(F)F [Example 21, (S)-4,4,4-trifluoro-3-((2-methylene-4-oxo-4-(1-(4-(trifluoromethyl)phenyl)cyclobutoxy)butanoyl)oxy)butanoic acid] |  |  | 1 µM | 0.9 µM | Emax ([7]; +GSH): 53%; Emax ([7]; −GSH): 170%; EC50 [7, 8]: 5.7 µM; EC50 ([7]; −GSH): 1.7 µM
10 | C=C(CC(=O)OC1(c2ccc(C(F)(F)F)cc2)CCC1)C(=O)O[C@H](CC(=O)O)C(F)(F)F [Example 23, (R)-4,4,4-trifluoro-3-((2-methylene-4-oxo-4-(1-(4-(trifluoromethyl)phenyl)cyclobutoxy)butanoyl)oxy)butanoic acid] |  |  | 1.5 µM | 1.2 µM | Emax ([7]; +GSH): 54%; Emax ([7]; −GSH): 141%; EC50 [7, 8]: 5.3 µM; EC50 ([7]; −GSH): 2.3 µM
11 | C=C(CC(=O)OC1(Cc2ccc(Cl)cc2)CCC1)C(=O)OCC(=O)O [Example 24, 2-((4-(1-(4-chlorobenzyl)cyclobutoxy)-2-methylene-4-oxobutanoyl)oxy)acetic acid] |  |  | 14.5 µM | 11.3 µM | Emax ([7]; +GSH): 119%; Emax ([7]; −GSH): 194%; EC50 [7, 8]: 28.3 µM; EC50 ([7]; −GSH): 29.6 µM
12 | C=C(CC(=O)OC1(c2ccc(C(F)(F)F)cc2)CCCC1)C(=O)OCC(=O)O [Example 25, 2-((2-methylene-4-oxo-4-((1-(4-(trifluoromethyl)phenyl)cyclopentyl)oxy)butanoyl)oxy)acetic acid] |  |  | 17.4 µM | 15.9 µM | 
13 | C=C(CC(=O)OC1(c2ccc(-c3ccc(F)cc3)cc2)CCC1)C(=O)OCC(=O)O [Example 26, 2-((4-(1-(4′-fluoro-[1,1′-biphenyl]-4-yl)cyclobutoxy)-2-methylene-4-oxobutanoyl)oxy)acetic acid] |  |  | 46.9 µM | 3.9 µM | 
14 | C=C(CC(=O)OC1(Cc2ccc(C(F)(F)F)cc2)CC1)C(=O)OCC(=O)O [Example 27, 2-((2-methylene-4-oxo-4-(1-(4-(trifluoromethyl)benzyl)cyclopropoxy)butanoyl)oxy)acetic acid] |  |  | 16.4 µM | 14.1 µM | 
15 | C=C(CC(=O)OC1(C#Cc2ccc(C(F)(F)F)cc2)CCC1)C(=O)OCC(=O)O [Example 28, 2-((2-methylene-4-oxo-4-(1-((4-(trifluoromethyl)phenyl)ethynyl)cyclobutoxy)butanoyl)oxy)acetic acid] |  |  | 11.3 µM | 3.3 µM | 
16 | C=C(CC(=O)OC1(c2ccc(C(F)(F)F)cc2)COC1)C(=O)OCC(=O)O [Example 29, 2-((2-methylene-4-oxo-4-((3-(4-(trifluoromethyl)phenyl)oxetan-3-yl)oxy)butanoyl)oxy)acetic acid] |  |  | 43.2 µM | 45.2 µM | 
17 | C=C(CC(=O)OC1(c2ccc(C(F)(F)F)cc2)CC(F)(F)C1)C(=O)OCC(=O)O [Example 31, 2-((4-(3,3-difluoro-1-(4-(trifluoromethyl)phenyl)cyclobutoxy)-2-methylene-4-oxobutanoyl)oxy)acetic acid] |  |  | 14.4 µM | 16.5 µM | Emax ([7]; +GSH): 108%; Emax ([7]; −GSH): 182%; EC50 [7, 8]: 30.8 µM; EC50 ([7]; −GSH): 21.7 µM
18 | COC(=O)/C=C/C(=O)OC [dimethyl fumarate, reference compound] |  |  |  |  | Emax ([7]; +GSH): 19%; Emax ([7]; −GSH): 100%; EC50 [7, 8]: > 100 µM; EC50 ([7]; −GSH): 6 µM
19 | C=C(CC(=O)OC)C(=O)OC [dimethyl itaconate, reference compound] |  |  | > 100 µM | > 100 µM | 
